This experiment addresses Human immunodeficiency virus type 1 protease (Human immunodeficiency virus 1, UniProt Q72874). The experiment can be described thus: Inhibitory activity against HIV-I protease was determined.

The Ki is the dissociation constant of the complex between target and ligand, obtained from inhibition or displacement. In the case of `CC(C)CN(C[C@@H](O)[C@H](Cc1ccccc1)NC(=O)[C@H](CC(N)=O)NC(=O)c1ccc2ccccc2n1)S(=O)(=O)N1ONc2ccccc21`, the inhibition constant (Ki) turned out to be 0.1 nM.
The compound `CC(C)CN(C[C@@H](O)[C@H](Cc1ccccc1)NC(=O)O[C@H]1CCOC1)S(=O)(=O)NC(C)(C)C` yielded a Ki of 42 nM.
